# Where “and” joins values, the source holds several entries; their conditions need not be identical. Identical values can stand only once. Entries after “also recorded” stand apart in the source; their conditions may differ. Like-named read-outs stand apart in the source and are kept apart here. Marks after values point to notes of the source that are not given here.
# How the values were obtained:
# [1] = system: desmoglein-1 (DSG1); assay: 3D micro-epidermis model (EpiScreen): desmoglein-1 immunostaining; type: cell-based, human; conditions: supplementary data, Tox = toxic; for activation at 1 µM: Homo sapiens, 72 h, read-out: DSG 1 μM
# [2] = system: filaggrin (FLG); assay: 3D micro-epidermis model (EpiScreen): filaggrin immunostaining; type: cell-based, human; conditions: for activation at 0.1 µM / activation at 1 µM / activation at 0.01 µM: Homo sapiens, 72 h; for FLG expression: Table 1 summary;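 for all read-outs here: human primary epidermal keratinocytes differentiated in high calcium into 3D micro-epidermises, compound-treated for three days, imaged by confocal high-content microscopy, filaggrin staining intensity quantified within actin-segmented structures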
# [3] = system: desmoglein-1 (DSG1); assay: 3D micro-epidermis model (EpiScreen): desmoglein-1 immunostaining; type: cell-based, human; conditions: for activation at 0.1 µM / activation at 0.01 µM: Homo sapiens, 72 h; for activation at 0.1 µM: 100 nM, Tox = toxic, read-out: DSG 100 nM; for activation at 0.1 µM / DSG 3 nM / DSG 30 nM / activation at 0.01 µM: supplementary data; for activation at 0.01 µM: 10 nM, read-out: DSG 10 nM; for DSG-1 expression: Table 1 summary
# Method: (§1) To assess the effects of such therapy molecules on the epidermis, keratinocytes were grown in the presence of kinase inhibitors during 3 days with high calcium concentration to induce keratinocyte differentiation and generate a 3D-stratified differentiated epidermis. Drug impact on the epidermis development was assessed via different keratinocyte markers including: • Ki-67, an universally expressed protein among proliferating cells and absent in the quiescent cells; • Filaggrin, a filament-associated protein that binds to keratin fibers and is a marker of terminal differentiation; • Desmoglein-1, a component of desmosomes and differentiation marker expressed in all epidermal layer above the basal layer; and • Involucrin, an early differentiation marker expressed in the spinous and granular layers and a protein precursor of the epidermal cornified envelope.
# (§2) Human epidermal keratinocytes cells (HPEKs) from a juvenile donor (CellnTec, Switzerland) are cultured in flasks in proliferation medium. Keratinocytes are seeded at passage 6 into EpiScreen™ (Abzena, Cambridge, UK) plates containing collagen 1 coated disc micropatterns (CYTOO, Grenoble, France). Four hours later, unattached cells are washed off and a high calcium medium is added to induce keratinocytes differentiation. The day after, keratinocytes are treated with screening compounds, and Trichostatin A is added at 0.3 μM as an internal positive control. After three days of treatment, micro-epidermises are fixed with a formalin solution 10% for 30 minutes, then permeabilized with 0.1% Triton. Several immunostainings are performed: actin (Acti-Stain 555, PHDH1, Cytoskeleton), nuclei (Hoechst, H3570, Invitrogen), and one biomarker of interest per well either anti-involucrin (HPA055211, Sigma), anti-filaggrin (HPA030189, Sigma) or anti-desmoglein-1 (HPA022128, Sigma). Antibodies are added overnight at 4° C. before staining with secondary antibody, anti-rabbit 488 (711-545-152, Jackson) for 2 hours at room temperature.
# (§3) Images of each well are acquired with the Operetta HCS platform (Perkin Elmer, Waltham, MA, USA) using a ×10 objective in confocal mode in eight z-planes from 2 μm to 44 μm in steps of 6 μm in each of the 3 channels: actin, nuclei, and one biomarker of interest. The first step of the image analysis consists in detecting micro-epidermis structures on the first z-plane by segmenting the actin staining. Micro-epidermis structures are validated based on several area and roundness min and max criteria. Then, the area of each biomarker staining is measured inside the valid micro-epidermis masks through each z-plane. For all homogeneous biomarker staining, their intensity through the different planes is measured.
# (§4) The actin network of each micro-epidermis is analyzed in each z-plane in order to determine the average 3D structure edges. The biomarker intensity is measured in each z-plane for each structure, and then averaged with the other results generated in the same well. Based on the data generated in the two previous steps, an average 3D reconstruction image is generated. It consists of a meshwork that delimits the structure edges, and a color scaled volume that corresponds to the biomarkers distribution and expression.
# The effect of 8 oncology molecules, selected from first generation EGFRi and pan-kinase inhibitors which mostly target VEGFR and second and third generation therapies targeting main mutations relating to first generation treatment resistance, were assessed in vitro using a 3D micro-epidermis model. The drug incubation concentrations (3, 10, 30, 100 nM) were selected to reflect the clinically relevant (unbound) drug exposures (Table 2). The drug impact was assessed by analysis of tissue size and keratinocyte proliferation using Ki-67 staining and keratinocyte differentiation using filaggrin, desmoglein-1 and involucrin staining. […]
# [4] = system: involucrin (IVL); assay: 3D micro-epidermis model (EpiScreen): involucrin immunostaining; type: cell-based, human; conditions: for activation at 0.1 µM / activation at 1 µM: Homo sapiens, 72 h; for activation at 0.1 µM: 100 nM; for IVL expression: Table 1 summary
# Method: as §1, §2, §3, §4
# The effect of 8 oncology molecules, selected from first generation EGFRi and pan-kinase inhibitors which mostly target VEGFR and second and third generation therapies targeting main mutations relating to first generation treatment resistance, were assessed in vitro using a 3D micro-epidermis model. […] The drug impact was assessed by analysis of tissue size and keratinocyte proliferation using Ki-67 staining and keratinocyte differentiation using filaggrin, desmoglein-1 and involucrin staining.
# Size of the epidermis and the expression of the protein junction desmoglein-1 (DSG1), involucrin (IVL) and filaggrin (FLG) was assessed by immunostaining and compared to untreated control. […]
# [5] = system: Human epidermal keratinocytes cells (HPEKs), 3D micro-epidermis; assay: 3D micro-epidermis model (EpiScreen): epidermis size, toxicity, dose response, classification; type: cell-based; conditions: for Dose in response: variation of protein expression at 3, 10, 30 nM (EGFRi) or 3, 10, 30, 100 nM (VEGFRi); for Dose in response / Dose/response: markers in brackets; for impact on all measured parameters / epidermis development: micro-epidermis model; for Dose/response: supplementary table, per run (1st or 2nd Run); for effect on desmoglein-1, involucrin and filaggrin expression (dose dependence): 3, 10, 30 nM;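 for all read-outs here: keratinocytes on micropatterned discs in high-calcium medium, drug exposure for three days, then fixation and confocal high-content imaging of actin, nuclei and a marker, vehicle DMSO-matched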
# [6] = cited from earlier work; for Cmax: maximal plasma concentration after a single daily-recommended dose, human; for Unbound fraction: unbound to plasma protein
# [7] = supplementary data, two runs, Tox = toxic
# [8] = 100 nM, supplementary data, two runs, Tox = toxic, read-out: FLG 100 nM
# [9] = 1 μM, supplementary data, two runs, Tox = toxic
# [10] = Table 3, 30 nM (EGFRi) or 100 nM (VEGFRi), 3 days, vs untreated control, superscript = significance footnote
# [11] = Table 3, pro-proliferation or pro-differentiation
# [12] = Table 1 summary of drug effect on epidermis
# [13] = Table 1 summary, pro-differentiation / pro-proliferation
smiles,measurement,setting,value
CC#CC(=O)N1CCC[C@H]1c1nc(-c2ccc(C(=O)Nc3ccccn3)cc2)c2c(N)nccn12 [Acalabrutinib],DSG 10 μM,[1],−7.50%
same,activation at 1 µM,[1]; 1 μM,-15%
same,FLG 10 μM,[2]; [7],33%
same,activation at 0.1 µM,[2]; [8],6%
same,activation at 1 µM,[2]; [9],15%
same,activation at 0.1 µM,[3],-26%
same,IVL 10 μM,[4]; [7],25%
same,activation at 0.1 µM,[4]; [7],11%
same,activation at 1 µM,[4]; [9],15%
CC(=O)Nc1ccc(O)cc1 [Acetaminophen],Epidermis size,[5]; [10],Unchanged^4
same,Classification,[5]; [11],Unchanged
same,Dose in response,[5]; Table 3,No
same,impact on all measured parameters / epidermis development,[5],no effect
same,Dose/response,[5],No
same,IVL 10 μM,[4]; [7],10% and 8%
CNC(=O)c1ccc(N2C(=S)N(c3ccc(C#N)c(C(F)(F)F)c3)C(=O)C2(C)C)cc1F [Enzalutamide],Dose/response,[5],No
same,DSG 10 μM,[1],−12%
same,activation at 1 µM,[1]; 1 μM,-6%
same,FLG 10 μM,[2]; [7],−1%
same,activation at 0.1 µM,[2]; [8],2%
same,activation at 1 µM,[2]; [9],9.8%
same,activation at 0.1 µM,[3],-6%
same,IVL 10 μM,[4]; [7],2%
same,activation at 0.1 µM,[4]; [7],9.3%
same,activation at 1 µM,[4]; [9],6.2%
COc1cc2ncnc(Nc3ccc(F)c(Cl)c3)c2cc1OCCCN1CCOCC1 [Gefitinib],Cmax,[6],356 nM
same,Unbound fraction,[6],3.4%**
same,Toxicity at 1 μM,[5],Yes
same,"effect on desmoglein-1, involucrin and filaggrin expression (dose dependence)",[5],increased in a dose-dependent manner only the expression of desmoglein-1
same,Epidermis size,[5]; [12],Unchanged
same,Classification,[5]; [13],Pro-differentiation
same,Epidermis size,[5]; [10],Unchanged^4
same,Classification,[5]; [11],Pro-
same,Dose in response,[5]; Table 3,Yes
same,Dose/response,[5],Yes (DSG)
same,FLG 3 nM,[2]; supplementary data,10%
same,FLG 30 nM,[2]; supplementary data,5%
same,activation at 0.01 µM,"[2]; read-out: FLG 10 nM, 10 nM, supplementary data, two runs",3%
same,activation at 0.1 µM,"[2]; read-out: FLG 100 nM, 100 nM, supplementary data, two runs, Tox = toxic",28%
same,FLG expression,[2],Increased
same,DSG 3 nM,[3],−8%
same,DSG 30 nM,[3],15%
same,activation at 0.01 µM,[3],0%
same,activation at 0.1 µM,[3],41%
same,DSG-1 expression,[3],Increased
same,IVL 3 nM,[4]; supplementary data,23%
same,IVL 10 nM,"[4]; supplementary data, two runs",8%
same,IVL 30 nM,[4]; supplementary data,23%
same,activation at 0.1 µM,[4]; [7],29%
same,IVL expression,[4],Increased
Cc1ccnc2c1NC(=O)c1cccnc1N2C1CC1 [Nevirapine],Dose/response,[5],Yes (DSG)
same,DSG 10 μM,[1],−28%
same,activation at 1 µM,[1]; 1 μM,-15%
same,FLG 10 μM,[2]; [7],2%
same,activation at 0.1 µM,[2]; [8],7%
same,activation at 1 µM,[2]; [9],8%
same,activation at 0.1 µM,[3],-8%
same,IVL 10 μM,[4]; [7],20%
same,activation at 0.1 µM,[4]; [7],17%
same,activation at 1 µM,[4]; [9],15%
C=CC(=O)Nc1cc(Nc2nccc(-c3cn(C)c4ccccc34)n2)c(OC)cc1N(C)CCN(C)C [Osimertinib],Cmax,[6],627 nM
same,Unbound concentration,"[6]; unbound plasma concentration, identified or calculated from Cmax and unbound fraction",8.2764 nM
same,Unbound fraction,[6],1.32%*
same,"effect on desmoglein-1, involucrin and filaggrin expression (dose dependence)",[5],did not affect
same,Epidermis size,[5]; [12],Unchanged
same,Classification,[5]; [13],Unchanged
same,Epidermis size,[5]; [10],Unchanged^4
same,Classification,[5]; [11],Unchanged
same,Dose in response,[5]; Table 3,No
same,impact on all measured parameters / epidermis development,[5],did not show any impact; also recorded: no impact
same,Dose/response,[5],No
same,DSG 1 μM,[1]; 1 μM,Tox
same,DSG 10 μM,[1],Tox
same,FLG 3 nM,[2]; supplementary data,−12%
same,FLG 30 nM,[2]; supplementary data,2%
same,FLG 1 μM,[2]; [9],Tox
same,FLG 10 μM,[2]; [7],Tox
same,activation at 0.01 µM,"[2]; 10 nM, supplementary data, two runs, read-out: FLG 10 nM",-6%
same,activation at 0.1 µM,[2]; [8],16%
same,FLG expression,[2],Unchanged
same,DSG 3 nM,[3],−3%
same,DSG 30 nM,[3],7%
same,activation at 0.01 µM,[3],-7%
same,activation at 0.1 µM,[3],18%
same,DSG-1 expression,[3],Unchanged
same,IVL 3 nM,[4]; supplementary data,6%
same,IVL 10 nM,"[4]; supplementary data, two runs",8%
same,IVL 30 nM,[4]; supplementary data,7%
same,IVL 1 μM,[4]; [9],Tox
same,IVL 10 μM,[4]; [7],Tox
same,activation at 0.1 µM,[4]; [7],20%
same,IVL expression,[4],Unchanged
COc1cc2c(Nc3ccc(Br)cc3F)ncnc2cc1OCC1CCN(C)CC1 [Vandetanib],activation at 1 µM,[1]; 1 μM,30%
same,activation at 0.1 µM,[3],5%
same,activation at 0.1 µM,[4]; [7],25%
same,activation at 1 µM,[4]; [9],51%
CCCS(=O)(=O)Nc1ccc(F)c(C(=O)c2c[nH]c3ncc(-c4ccc(Cl)cc4)cc23)c1F [Vemurafenib],DSG 10 μM,[1],−58%
same,activation at 1 µM,[1]; 1 μM,-33%
same,FLG 10 μM,[2]; [7],126%
same,activation at 0.1 µM,[2]; [8],23%
same,activation at 1 µM,[2]; [9],65%
same,activation at 0.1 µM,[3],-26%
same,IVL 10 μM,[4]; [7],−40%
same,activation at 0.1 µM,[4]; [7],-11%
same,activation at 1 µM,[4]; [9],-24%

# — patent US12174172B2, “Method for evaluating the efficacy of a composition in reducing the effects of cancer therapeutics on skin” (Johnson & Johnson Consumer Inc., priority 2019, dated 2024)
